Measurements reported in paper PMC8069501, “Identification of Vinyl Sulfone Derivatives as EGFR Tyrosine Kinase Inhibitor: In Vitro and In Silico Studies” (Molecules, 2021).

How the values were obtained:
Type in all cases: biochemical
[1] = molecular target: T1, JAK3 (Homo sapiens, UniProt P52333); experiment: kinase inhibition assay (ADP-Glo)
T1 sequence (P52333 1-1124): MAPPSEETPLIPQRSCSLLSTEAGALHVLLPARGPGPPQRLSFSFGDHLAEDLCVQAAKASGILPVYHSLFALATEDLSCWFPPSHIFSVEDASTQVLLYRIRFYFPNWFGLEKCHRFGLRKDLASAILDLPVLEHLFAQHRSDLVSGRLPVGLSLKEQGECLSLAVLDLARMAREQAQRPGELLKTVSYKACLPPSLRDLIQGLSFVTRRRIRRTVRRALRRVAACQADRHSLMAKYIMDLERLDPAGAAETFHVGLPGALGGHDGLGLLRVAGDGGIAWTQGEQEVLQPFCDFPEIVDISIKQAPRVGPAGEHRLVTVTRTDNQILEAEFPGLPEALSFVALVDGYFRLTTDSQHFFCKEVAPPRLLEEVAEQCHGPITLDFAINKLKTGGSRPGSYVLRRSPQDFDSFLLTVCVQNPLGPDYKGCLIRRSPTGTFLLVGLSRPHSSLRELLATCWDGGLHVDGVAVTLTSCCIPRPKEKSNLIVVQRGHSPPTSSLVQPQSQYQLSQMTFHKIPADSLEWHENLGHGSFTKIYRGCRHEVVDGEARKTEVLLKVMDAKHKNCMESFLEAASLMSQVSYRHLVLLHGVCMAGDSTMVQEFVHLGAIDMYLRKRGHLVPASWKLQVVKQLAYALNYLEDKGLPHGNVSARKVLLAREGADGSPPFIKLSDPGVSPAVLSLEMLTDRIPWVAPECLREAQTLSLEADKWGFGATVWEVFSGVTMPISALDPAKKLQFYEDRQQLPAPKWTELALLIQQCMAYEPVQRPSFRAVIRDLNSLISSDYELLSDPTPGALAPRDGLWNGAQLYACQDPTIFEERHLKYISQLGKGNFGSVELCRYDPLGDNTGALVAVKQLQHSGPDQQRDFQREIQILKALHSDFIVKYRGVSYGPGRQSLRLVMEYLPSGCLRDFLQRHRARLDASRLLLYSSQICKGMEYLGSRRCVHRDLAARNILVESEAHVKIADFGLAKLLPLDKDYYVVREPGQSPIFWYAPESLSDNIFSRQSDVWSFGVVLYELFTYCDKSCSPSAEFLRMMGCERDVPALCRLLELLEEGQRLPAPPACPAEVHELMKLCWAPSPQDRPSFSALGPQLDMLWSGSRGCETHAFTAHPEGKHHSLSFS

[2] = molecular target: T2, EGFR-TK (epidermal growth factor receptor tyrosine kinase) (Homo sapiens, UniProt P00533); experiment: ADP-Glo kinase assay
T2 construct: tyrosine kinase (TK) domain

[3] = molecular target: T3, HER2 (Homo sapiens, UniProt P04626); experiment: kinase inhibition assay (ADP-Glo)
T3 construct: gene ERBB2
T3 sequence (P04626 23-1255): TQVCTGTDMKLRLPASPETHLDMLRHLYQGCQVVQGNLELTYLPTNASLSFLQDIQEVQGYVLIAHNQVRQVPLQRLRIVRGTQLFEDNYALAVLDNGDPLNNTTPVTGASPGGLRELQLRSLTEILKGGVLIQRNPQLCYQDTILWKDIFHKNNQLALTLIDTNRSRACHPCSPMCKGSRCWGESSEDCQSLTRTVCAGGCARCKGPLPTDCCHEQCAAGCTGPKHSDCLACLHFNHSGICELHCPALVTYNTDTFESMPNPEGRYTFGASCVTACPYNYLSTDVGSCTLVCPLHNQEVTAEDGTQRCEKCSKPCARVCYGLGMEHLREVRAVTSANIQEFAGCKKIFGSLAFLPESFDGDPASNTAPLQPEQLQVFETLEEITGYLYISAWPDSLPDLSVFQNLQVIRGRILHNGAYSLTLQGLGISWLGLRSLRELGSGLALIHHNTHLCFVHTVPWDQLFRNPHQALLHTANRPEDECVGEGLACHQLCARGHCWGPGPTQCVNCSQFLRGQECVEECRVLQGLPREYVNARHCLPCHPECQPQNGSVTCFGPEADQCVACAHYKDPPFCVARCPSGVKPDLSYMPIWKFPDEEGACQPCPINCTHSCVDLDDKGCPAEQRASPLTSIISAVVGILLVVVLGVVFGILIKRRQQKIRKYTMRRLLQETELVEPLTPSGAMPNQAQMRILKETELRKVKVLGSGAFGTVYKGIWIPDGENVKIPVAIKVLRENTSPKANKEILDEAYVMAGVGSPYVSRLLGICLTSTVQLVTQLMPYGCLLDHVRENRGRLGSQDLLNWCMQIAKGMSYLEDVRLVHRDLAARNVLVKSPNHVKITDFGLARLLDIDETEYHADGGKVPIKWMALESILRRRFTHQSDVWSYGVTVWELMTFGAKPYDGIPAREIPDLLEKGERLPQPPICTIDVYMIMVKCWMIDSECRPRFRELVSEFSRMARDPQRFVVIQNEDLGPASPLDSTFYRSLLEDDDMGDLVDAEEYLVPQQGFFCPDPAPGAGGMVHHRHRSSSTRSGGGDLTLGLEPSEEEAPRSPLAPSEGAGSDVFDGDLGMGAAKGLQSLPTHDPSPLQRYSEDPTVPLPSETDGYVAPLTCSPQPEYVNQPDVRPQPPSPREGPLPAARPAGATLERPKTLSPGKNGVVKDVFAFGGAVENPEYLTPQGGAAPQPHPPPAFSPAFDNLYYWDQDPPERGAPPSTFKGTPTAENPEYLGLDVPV

T2 sequence (P00533 712-979 limits assumed): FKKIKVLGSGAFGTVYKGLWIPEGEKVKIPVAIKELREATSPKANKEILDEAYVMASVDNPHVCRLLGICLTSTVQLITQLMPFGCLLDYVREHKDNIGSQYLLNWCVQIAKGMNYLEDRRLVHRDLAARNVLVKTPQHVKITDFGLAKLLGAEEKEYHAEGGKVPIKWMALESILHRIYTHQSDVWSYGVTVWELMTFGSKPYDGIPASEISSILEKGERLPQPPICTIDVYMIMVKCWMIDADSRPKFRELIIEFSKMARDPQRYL

Structure (SMILES): COc1cc(/C=C/S(=O)(=O)c2ccccc2)cc(OC)c1OC [VF16]
- IC50 [1]: 158 ± 4.75 nM
- IC50 [2]: 7.85 ± 0.88 nM
- IC50 [3]: 312 ± 0.28 nM
